What is called EC50 is the midpoint of the concentration-response curve. Low values mean an effect from little substance, high ones a need for much substance. The term logD denotes lipophilicity at a set pH, counting ionised and neutral species. Read a low logD as lower lipophilicity. A word on the IC50: it is the concentration needed to halve the response being measured.

≈ marks a conversion by molar mass, not a printed value.

In one series the test system is HCT-116. The experiment in a line: cells. In kind it is functional, cell-based. The note with it: Homo sapiens, HCT-116, 48 h.
Series [1] is described as follows: Partition coefficient, log D of the compound at pH 7.4 by Avdeef-Tsinman potentiometric titration method. The note with it: octanol/water. Format: physicochemical.
For a further series, the system named is PC-3. Nature of the series: cells. Format: functional, cell-based. As to conditions: Homo sapiens, PC-3, 48 h.
The nature of series [2]: Intrinsic aqueous solubility of the compound at pH 7.4 by Avdeef-Tsinman potentiometric titration method. In kind it is physicochemical. The note with it: read-out: Intrinsic_solubility.
The subject of the next series is HepG2. Nature of the series: cells. Format: functional, cell-based. The note with it: Homo sapiens, HepG2, 48 h.
For a further series, the system named is A549. Nature of the series: cells. As to conditions: Homo sapiens, A549, 48 h. Format: functional, cell-based.
The target in another series is Histone deacetylase. In kind it is protein assay, Homo sapiens. The note with it: hela.
A further series concerns the target Histone deacetylase 1 (Homo sapiens, UniProt Q13547). Nature of the series: Inhibition of human recombinant HDAC1 using p53 residues 379-382 (RHKKAc) as substrate.
Series [3] is filed under the species Homo sapiens. The experiment in a line: Selectivity ratio of IC50 for human recombinant HDAC4 to human recombinant HDAC6.
The target in another series is Histone deacetylase 4 (Homo sapiens, UniProt P56524). Nature of the series: Inhibition of human recombinant HDAC4 using p53 residues 379-382 (RHKKAc) as substrate.
Sequence of Histone deacetylase 4 (P56524 whole entry, the tested form may be a part): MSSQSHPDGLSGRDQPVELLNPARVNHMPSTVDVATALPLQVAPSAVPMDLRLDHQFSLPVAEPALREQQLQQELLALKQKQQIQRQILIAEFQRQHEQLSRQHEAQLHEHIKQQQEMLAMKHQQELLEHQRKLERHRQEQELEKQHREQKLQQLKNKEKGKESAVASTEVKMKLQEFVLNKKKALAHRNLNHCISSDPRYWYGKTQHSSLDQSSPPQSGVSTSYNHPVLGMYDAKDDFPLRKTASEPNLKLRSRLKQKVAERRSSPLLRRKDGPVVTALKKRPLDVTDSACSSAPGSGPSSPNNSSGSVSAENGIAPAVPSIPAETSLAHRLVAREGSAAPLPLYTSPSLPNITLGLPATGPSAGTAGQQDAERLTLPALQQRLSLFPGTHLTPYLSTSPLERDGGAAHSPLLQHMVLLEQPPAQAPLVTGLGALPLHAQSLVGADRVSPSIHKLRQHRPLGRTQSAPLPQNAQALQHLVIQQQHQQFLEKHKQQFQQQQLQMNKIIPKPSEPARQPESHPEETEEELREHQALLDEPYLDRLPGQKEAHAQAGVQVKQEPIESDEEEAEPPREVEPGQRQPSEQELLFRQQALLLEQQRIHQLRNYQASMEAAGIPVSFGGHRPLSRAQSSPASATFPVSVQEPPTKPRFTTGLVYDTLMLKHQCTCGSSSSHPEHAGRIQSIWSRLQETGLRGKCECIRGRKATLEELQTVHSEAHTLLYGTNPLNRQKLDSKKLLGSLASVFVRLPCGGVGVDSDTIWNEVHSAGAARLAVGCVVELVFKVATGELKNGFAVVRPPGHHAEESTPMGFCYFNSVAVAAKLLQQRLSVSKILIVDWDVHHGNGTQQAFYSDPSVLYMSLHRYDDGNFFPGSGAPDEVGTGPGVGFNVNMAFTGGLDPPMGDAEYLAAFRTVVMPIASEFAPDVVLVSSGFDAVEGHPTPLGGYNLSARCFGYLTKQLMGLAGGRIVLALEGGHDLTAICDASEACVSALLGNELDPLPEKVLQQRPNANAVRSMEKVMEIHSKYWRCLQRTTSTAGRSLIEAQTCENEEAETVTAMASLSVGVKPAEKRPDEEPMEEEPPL
Series [4] concerns the target T1, Protein deacetylase HDAC6 (Homo sapiens, UniProt Q9UBN7).
T1 sequence (Q9UBN7 whole entry): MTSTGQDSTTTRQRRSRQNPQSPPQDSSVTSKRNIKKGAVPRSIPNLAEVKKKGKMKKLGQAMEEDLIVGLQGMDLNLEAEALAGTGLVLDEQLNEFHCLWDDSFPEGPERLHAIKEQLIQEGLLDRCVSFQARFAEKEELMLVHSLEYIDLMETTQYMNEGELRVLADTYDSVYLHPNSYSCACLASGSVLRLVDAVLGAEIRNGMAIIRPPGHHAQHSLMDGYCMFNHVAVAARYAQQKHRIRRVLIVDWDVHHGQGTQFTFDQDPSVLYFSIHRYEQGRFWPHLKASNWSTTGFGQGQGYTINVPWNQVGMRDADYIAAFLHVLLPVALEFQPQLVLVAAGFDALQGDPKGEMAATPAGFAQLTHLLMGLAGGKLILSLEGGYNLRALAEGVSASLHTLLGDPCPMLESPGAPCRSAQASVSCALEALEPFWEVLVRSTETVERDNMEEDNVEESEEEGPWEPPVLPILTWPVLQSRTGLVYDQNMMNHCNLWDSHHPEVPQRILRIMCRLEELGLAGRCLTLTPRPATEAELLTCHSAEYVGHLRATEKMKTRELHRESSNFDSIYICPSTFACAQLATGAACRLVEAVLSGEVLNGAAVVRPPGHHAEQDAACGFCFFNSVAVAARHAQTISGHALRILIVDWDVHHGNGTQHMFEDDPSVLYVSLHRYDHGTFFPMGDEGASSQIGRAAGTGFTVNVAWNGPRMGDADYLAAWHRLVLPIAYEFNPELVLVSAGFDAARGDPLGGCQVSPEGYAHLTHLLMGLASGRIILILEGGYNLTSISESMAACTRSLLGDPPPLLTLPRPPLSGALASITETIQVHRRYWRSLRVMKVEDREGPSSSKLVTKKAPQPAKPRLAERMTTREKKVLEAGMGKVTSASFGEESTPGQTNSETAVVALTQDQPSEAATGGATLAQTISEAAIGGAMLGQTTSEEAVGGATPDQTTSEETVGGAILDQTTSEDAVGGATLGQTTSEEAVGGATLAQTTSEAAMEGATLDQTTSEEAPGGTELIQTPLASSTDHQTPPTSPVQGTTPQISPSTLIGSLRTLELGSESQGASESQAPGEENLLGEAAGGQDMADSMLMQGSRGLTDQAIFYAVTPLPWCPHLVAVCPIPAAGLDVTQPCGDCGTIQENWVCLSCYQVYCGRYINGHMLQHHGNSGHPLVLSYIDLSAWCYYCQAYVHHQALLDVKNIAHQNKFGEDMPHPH

The species entered for series [5] is Homo sapiens. Nature of the series: Selectivity ratio of IC50 for human recombinant HDAC1 to human recombinant HDAC6.

Sequence of Histone deacetylase 1 (Q13547 whole entry, the tested form may be a part): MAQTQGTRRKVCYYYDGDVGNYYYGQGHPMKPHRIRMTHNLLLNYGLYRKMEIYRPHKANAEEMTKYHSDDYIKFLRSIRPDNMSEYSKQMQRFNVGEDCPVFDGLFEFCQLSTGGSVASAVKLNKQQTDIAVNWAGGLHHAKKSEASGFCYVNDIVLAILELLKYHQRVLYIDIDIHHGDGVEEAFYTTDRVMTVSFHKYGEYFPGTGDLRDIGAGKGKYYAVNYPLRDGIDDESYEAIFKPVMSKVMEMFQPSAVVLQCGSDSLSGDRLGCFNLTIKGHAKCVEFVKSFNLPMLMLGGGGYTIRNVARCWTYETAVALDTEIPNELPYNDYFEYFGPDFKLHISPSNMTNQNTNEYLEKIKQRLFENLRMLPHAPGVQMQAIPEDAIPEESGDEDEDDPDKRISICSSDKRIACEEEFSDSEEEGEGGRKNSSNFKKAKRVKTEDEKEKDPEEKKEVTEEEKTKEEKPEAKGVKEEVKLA

With `CCCCCCCCN(Cc1ccccc1)Cc1ccc(/C=C/C(=O)NO)o1`, the concentration for a half-maximal effect (EC50) in the series on HCT-116 is 0.47 µM; in the series with PC-3 it was 42.3 µM; with HepG2, 3.96 µM; with A549, 6.59 µM. Besides, the logD in [1] amounted to 5.28. For the same molecule, the solubility in [2] came out at 1900 µM (≈ 731 µg/mL). The IC50 against Histone deacetylase amounted to 2.55 µM.
As to `CCN(Cc1ccccc1)Cc1ccc(/C=C/C(=O)NO)o1`, the 50% effective concentration (EC50) with HCT-116 is 6.37 µM; with PC-3, 104 µM; in the series with HepG2, more than 167 µM; in the series on A549 it was 38.4 µM. Moreover, in [1], the logD is 1.95. Also, in series [2], the solubility was found to be 3000 µM (≈ 901 µg/mL). Also, the IC50 on Histone deacetylase 1 was 5.44 µM; at Histone deacetylase it was 0.13 µM; on Histone deacetylase 4, 10.7 µM; in series [4], 0.25 µM. For the same molecule, the results for the Ratio IC50 in the series filed under Homo sapiens [3] and in the series listed under Homo sapiens [5] were 42.3 and 21.4, respectively.
For `O=C(/C=C/c1ccc(CN(CCO)Cc2ccc(-c3ccccc3)cc2)o1)NO`, the EC50 came out at 4.02 µM in the series on HCT-116, 15.9 µM in the series with PC-3, 22.6 µM with HepG2 and 8.36 µM in the series on A549. The molecule further displayed a log distribution coefficient (logD) in series [1] of 1.8. Also, in [2], the solubility is 3110 µM (≈ 1220 µg/mL). Besides, the IC50 on Histone deacetylase was determined as 0.089 µM.
As to `CCN(Cc1ccc(-c2ccccc2)cc1)Cc1ccc(/C=C/C(=O)NO)o1`, the 50% effective concentration (EC50) with HCT-116 came to 1.84 µM; in the series with PC-3 it was 67.9 µM; in the series on HepG2 it was 12.8 µM; with A549, 8.4 µM. Further, the IC50 on Histone deacetylase 1 is 3.42 µM; against Histone deacetylase it was 1.25 µM; on Histone deacetylase 4, 5.72 µM; in series [4], 0.83 µM. Moreover, the results for the Ratio IC50 in the series filed under Homo sapiens [3] and in the series listed under Homo sapiens [5] were 6.87 and 4.11, respectively.
`Cc1ccc(OCCN(Cc2ccccc2)Cc2ccc(/C=C/C(=O)NO)o2)cc1`: the EC50 in the series on HCT-116 came to 14.8 µM; in the series with PC-3, 51.7 µM; in the series on HepG2, 13 µM; in the series with A549 it was 52.6 µM. For the same molecule, the IC50 is 31.4 µM at Histone deacetylase 1, 1.87 µM on Histone deacetylase, 68.1 µM at Histone deacetylase 4 and 3.13 µM in series [4]. Besides, the Ratio IC50 in the series listed under Homo sapiens [3] is 21.8; in the series listed under Homo sapiens [5], 10.
For `CCCN(Cc1ccccc1)Cc1ccc(/C=C/C(=O)NO)o1`, the concentration giving a half-maximal response (EC50) was 24.9 µM with HCT-116, 25 µM in the series on PC-3, 16.7 µM in the series on HepG2 and 23.2 µM in the series on A549. This molecule also yielded a log distribution coefficient (logD) in series [1] of 2.54. The solubility in [2] stood at 2800 µM (≈ 880 µg/mL). Besides, the 50% inhibitory concentration (IC50) is 4.95 µM at Histone deacetylase 1, 0.17 µM on Histone deacetylase, 10.6 µM at Histone deacetylase 4 and 0.18 µM in series [4]. Moreover, the Ratio IC50 in the series listed under Homo sapiens [3] was 60; in the series listed under Homo sapiens [5] it was 28.1.
As for `CCCCN(Cc1ccccc1)Cc1ccc(/C=C/C(=O)NO)o1`, the EC50 worked out at 18.3 µM in the series on HCT-116, 20.7 µM in the series with PC-3, 24.3 µM in the series with HepG2 and 14.5 µM in the series with A549. The molecule further displayed a logD in [1] of 2.97. Besides, the solubility in series [2] stood at 2300 µM (≈ 755 µg/mL). The half-inhibitory concentration (IC50) on Histone deacetylase 1 worked out at 4.69 µM; on Histone deacetylase, 0.54 µM; on Histone deacetylase 4 it was 7.26 µM; in [4], 0.23 µM. Besides, the Ratio IC50 in the series filed under Homo sapiens [3] stood at 30.9; in the series listed under Homo sapiens [5] it was 20.
Regarding `Cc1ccc(OCCCCN(Cc2ccccc2)Cc2ccc(/C=C/C(=O)NO)o2)cc1`, the EC50 in the series with HCT-116 came to 5.62 µM; in the series on PC-3 it was 15.7 µM; in the series with HepG2 it was 16.3 µM; with A549, 9.82 µM. Besides, the IC50 worked out at 4.73 µM on Histone deacetylase 1, 1.31 µM against Histone deacetylase, 12.6 µM on Histone deacetylase 4 and 0.55 µM in series [4]. For the same molecule, the figures for the Ratio IC50 in the series filed under Homo sapiens [3] and in the series filed under Homo sapiens [5] were 23.1 and 8.63, respectively.
In the case of `O=C(/C=C/c1ccc(CN(CCOc2ccccc2)Cc2ccccc2)o1)NO`, the EC50 with HCT-116 was 20.1 µM; in the series with PC-3, more than 128 µM; in the series on HepG2, 44.7 µM; in the series on A549, 52.3 µM. The IC50 at Histone deacetylase 1 was 20.2 µM; at Histone deacetylase, more than 2.55 µM; on Histone deacetylase 4, 50.6 µM; in [4], 1.93 µM. Further, the Ratio IC50 is 26.2 in the series listed under Homo sapiens [3] and 10.5 in the series listed under Homo sapiens [5].
Regarding `O=C(/C=C/c1ccc(CN(CCO)Cc2ccccc2)o1)NO`, the half-maximal effective concentration (EC50) in the series on HCT-116 was 12.1 µM; in the series with PC-3, more than 138 µM; in the series on HepG2, 128 µM; in the series on A549, 97.2 µM. Moreover, the log distribution coefficient (logD) in [1] was 1.62. In series [2], the solubility was found to be 4000 µM (≈ 1270 µg/mL). Further, the IC50 at Histone deacetylase 1 turned out to be 12.7 µM; at Histone deacetylase, 0.17 µM; at Histone deacetylase 4 it was 11.3 µM; in [4] it was 0.43 µM. The results for the Ratio IC50 in the series listed under Homo sapiens [3] and in the series listed under Homo sapiens [5] were 26.3 and 29.7, respectively.
Consider `CC(C)N(Cc1ccccc1)Cc1ccc(/C=C/C(=O)NO)o1`, for which the half-maximal effective concentration (EC50) in the series on HCT-116 is 22.7 µM; with PC-3, 26.9 µM; in the series with HepG2 it was 67.5 µM; in the series with A549, 34.5 µM. The IC50 was 2.37 µM on Histone deacetylase 1, 0.18 µM against Histone deacetylase, 3.96 µM at Histone deacetylase 4 and 0.34 µM in [4]. Further, the Ratio IC50 amounted to 11.6 in the series listed under Homo sapiens [3] and 6.94 in the series filed under Homo sapiens [5].
Take `Cc1ccc(OCCCN(Cc2ccccc2)Cc2ccc(/C=C/C(=O)NO)o2)cc1`: the EC50 in the series on HCT-116 was 6.02 µM; in the series with PC-3 it was 42.2 µM; in the series on HepG2, 5.95 µM; with A549, 7.95 µM. Further, the 50% inhibitory concentration (IC50) was determined as 9.66 µM at Histone deacetylase 1, 2.54 µM at Histone deacetylase, 13.2 µM at Histone deacetylase 4 and 0.93 µM in series [4]. The results for the Ratio IC50 in the series filed under Homo sapiens [3] and in the series filed under Homo sapiens [5] were 14.2 and 10.4, respectively.
As for `Cc1ccc(OCCN(Cc2ccc(-c3ccccc3)cc2)Cc2ccc(/C=C/C(=O)NO)o2)cc1`, the 50% effective concentration (EC50) was 6.93 µM in the series on HCT-116, 18.8 µM in the series on PC-3, 19.4 µM in the series with HepG2 and 23 µM in the series on A549. Further, the IC50 was determined as 4.09 µM at Histone deacetylase 1, 1.71 µM against Histone deacetylase, 9.07 µM on Histone deacetylase 4 and 1.14 µM in series [4]. Besides, the Ratio IC50 in the series listed under Homo sapiens [3] stood at 7.95; in the series filed under Homo sapiens [5], 3.59.
